Data: the supplement of paper PMC10307832

Columns and labels:
Experiment in all cases: relative viability (nuclei count vs DMSO), 5 days (fraction); higher = more cells survive
[1] = tested on: HCC-366
How it was run: (§1)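 Relative viability divides the nuclei count in treated wells by that in vehicle wells. Lung cancer cell lines were seeded in 1536-well plates, dosed by pin tool the next day, and fixed and stained after 5 days in one step with final 0.05% Triton X-100, 1% formaldehyde and 1 ug/ml Hoechst. Dosing was a single drug or a fixed anchor-drug dose plus five library-drug doses (not always all listed) in √10 steps, and values are medians of duplicate plates imaged at 4×.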

[2] = tested on: HCC-44
How it was run: as §1

[3] = tested on: NCI-H1648
How it was run: as §1

[4] = tested on: NCI-H522
How it was run: as §1

[5] = tested on: NCI-H1703
How it was run: as §1

[6] = tested on: NCI-H1437
How it was run: as §1

[7] = tested on: A549
How it was run: as §1

[8] = tested on: IA-LM
How it was run: as §1

`O=C(O)c1ccc(-c2c[nH]c3ncc(-c4ccccc4)cc23)cc1C1CCCC1` + NC(=O)Nc1cc(-c2cccc(F)c2)sc1C(=O)N[C@H]1CCCNC1 [AZD7762] (partner 0.2 µM) was tested, and the relative viability ([1]; first compound 0.04 µM) was 0.274, the relative viability ([1]; first compound 0.1265 µM) was 0.413 and the relative viability ([1]; first compound 0.4 µM) was 0.399. The relative viability ([1]; first compound 1.265 µM) was 0.43, the relative viability ([2]; first compound 0.04 µM) was 1.07 and the relative viability ([2]; first compound 0.1265 µM) was 1.03. It also gave a relative viability ([2]; first compound 0.4 µM) of 1.01, a relative viability ([2]; first compound 1.265 µM) of 0.946 and a relative viability ([3]; first compound 0.04 µM) of 0.687. The relative viability ([3]; first compound 0.1265 µM) was 0.716, the relative viability ([3]; first compound 0.4 µM) was 0.82 and the relative viability ([4]; first compound 0.04 µM) was 0.662. It also gave a relative viability ([4]; first compound 0.1265 µM) of 0.896, a relative viability ([4]; first compound 0.4 µM) of 0.785 and a relative viability ([4]; first compound 1.265 µM) of 0.882. The relative viability ([5]; first compound 0.1265 µM) was 0.0651, the relative viability ([5]; first compound 0.4 µM) was 0.148 and the relative viability ([5]; first compound 1.265 µM) was 0.135. For the same compound, the relative viability ([6]; first compound 0.04 µM) was 1.15, the relative viability ([6]; first compound 0.1265 µM) was 1.21 and the relative viability ([6]; first compound 0.4 µM) was 1.15. It also gave a relative viability ([6]; first compound 1.265 µM) of 0.934.
Compound `O=C(O)c1ccc(-c2c[nH]c3ncc(-c4ccccc4)cc23)cc1C1CCCC1` + Nc1ncn([C@H]2C[C@H](O)[C@@H](CO)O2)c(=O)n1 [Decitabine] (partner 2 µM) has a relative viability ([1]; first compound 0.04 µM) of 0.336, a relative viability ([1]; first compound 0.1265 µM) of 0.342 and a relative viability ([1]; first compound 0.4 µM) of 0.363. It also gave a relative viability ([1]; first compound 1.265 µM) of 0.3, a relative viability ([7]; first compound 0.04 µM) of 0.291 and a relative viability ([7]; first compound 0.1265 µM) of 0.265. The relative viability ([7]; first compound 0.4 µM) was 0.277, the relative viability ([7]; first compound 1.265 µM) was 0.251 and the relative viability ([2]; first compound 0.04 µM) was 0.973. It also gave a relative viability ([2]; first compound 0.1265 µM) of 0.95, a relative viability ([2]; first compound 0.4 µM) of 0.962 and a relative viability ([2]; first compound 1.265 µM) of 0.864. The relative viability ([3]; first compound 0.04 µM) was 0.587, the relative viability ([3]; first compound 0.1265 µM) was 0.599 and the relative viability ([3]; first compound 0.4 µM) was 0.569. It also gave a relative viability ([4]; first compound 0.04 µM) of 0.662, a relative viability ([4]; first compound 0.1265 µM) of 0.593 and a relative viability ([4]; first compound 0.4 µM) of 0.591. The relative viability ([4]; first compound 1.265 µM) was 0.602, the relative viability ([6]; first compound 0.04 µM) was 0.533 and the relative viability ([6]; first compound 0.1265 µM) was 0.572. It also gave a relative viability ([6]; first compound 0.4 µM) of 0.517 and a relative viability ([6]; first compound 1.265 µM) of 0.336.
Work on `O=C(O)c1ccc(-c2c[nH]c3ncc(-c4ccccc4)cc23)cc1C1CCCC1` + O=C(CCCCCCC(=O)Nc1ccccc1)NO [Vorinostat] (partner 1 µM) yielded a relative viability ([1]; first compound 0.04 µM) of 0.368, a relative viability ([1]; first compound 0.1265 µM) of 0.531 and a relative viability ([1]; first compound 0.4 µM) of 0.394. The relative viability ([1]; first compound 1.265 µM) was 0.403, the relative viability ([2]; first compound 0.04 µM) was 1.04 and the relative viability ([2]; first compound 0.1265 µM) was 1.06. The relative viability ([2]; first compound 0.4 µM) was 1.02, the relative viability ([2]; first compound 1.265 µM) was 0.971 and the relative viability ([3]; first compound 0.04 µM) was 0.648. The relative viability ([3]; first compound 0.1265 µM) was 0.581, the relative viability ([3]; first compound 0.4 µM) was 0.331 and the relative viability ([4]; first compound 0.04 µM) was 0.932. The relative viability ([4]; first compound 0.1265 µM) was 0.984, the relative viability ([4]; first compound 0.4 µM) was 0.843 and the relative viability ([4]; first compound 1.265 µM) was 1.11. For the same compound, the relative viability ([6]; first compound 0.04 µM) was 0.842, the relative viability ([6]; first compound 0.1265 µM) was 0.814 and the relative viability ([6]; first compound 0.4 µM) was 0.531. For the same compound, the relative viability ([6]; first compound 1.265 µM) was 0.326, the relative viability ([8]; first compound 0.04 µM) was 0.976 and the relative viability ([8]; first compound 0.1265 µM) was 1.07. For the same compound, the relative viability ([8]; first compound 0.4 µM) was 1.13 and the relative viability ([8]; first compound 1.265 µM) was 1.03.
Work on `NC(=O)Nc1cc(-c2cccc(F)c2)sc1C(=O)N[C@H]1CCCNC1` [AZD7762] + CC(=O)Nc1cccc(-n2c(=O)n(C3CC3)c(=O)c3c(Nc4ccc(I)cc4F)n(C)c(=O)c(C)c32)c1 [Trametinib] (partner 0.02 µM) yielded a relative viability ([1]; first compound 0.01 µM) of 0.358, a relative viability ([1]; first compound 0.03162 µM) of 0.329 and a relative viability ([1]; first compound 0.1 µM) of 0.363. The relative viability ([1]; first compound 0.3162 µM) was 0.325, the relative viability ([1]; first compound 1 µM) was 0.13 and the relative viability ([2]; first compound 0.01 µM) was 1.13. For the same compound, the relative viability ([2]; first compound 0.03162 µM) was 1.04, the relative viability ([2]; first compound 0.1 µM) was 1.12 and the relative viability ([2]; first compound 0.3162 µM) was 1.15. It also gave a relative viability ([2]; first compound 1 µM) of 1.16, a relative viability ([3]; first compound 0.01 µM) of 0.506 and a relative viability ([3]; first compound 0.03162 µM) of 0.409. For the same compound, the relative viability ([3]; first compound 0.1 µM) was 0.513, the relative viability ([3]; first compound 0.3162 µM) was 0.446 and the relative viability ([3]; first compound 1 µM) was 0.514. It also gave a relative viability ([4]; first compound 0.01 µM) of 0.666, a relative viability ([4]; first compound 0.03162 µM) of 0.822 and a relative viability ([4]; first compound 0.1 µM) of 0.737. It also gave a relative viability ([4]; first compound 0.3162 µM) of 0.812, a relative viability ([4]; first compound 1 µM) of 0.791 and a relative viability ([6]; first compound 0.01 µM) of 0.561. The relative viability ([6]; first compound 0.03162 µM) was 0.53, the relative viability ([6]; first compound 0.1 µM) was 0.549 and the relative viability ([6]; first compound 0.3162 µM) was 0.662. For the same compound, the relative viability ([6]; first compound 1 µM) was 0.494.
